US11472832B2, “Withanolides useful for the treatment of neurodegenerative diseases” (priority 2013, dated 2022)
Where two headings read alike, the source gives them in different places. Each block holds one compound with its values, some of them ahead of it.

Assays:
NF-κB [1] = test: TNF-α-induced signalling activity in HEK293-NF-κB-luciferase reporter cell line; assay type: cell-based; conditions: HEK-293 cells; for IC50: TNF-alpha 40 ng/ml, 4 h, luciferase; for inhibition of NF-κB expression: TNF-alpha, 0.05 to 5 uM, FIG. 3
Protocol: Ten thousand hygromycin B-resistant HEK-293 cells were seeded per well in a 96-well plate (Corning, New-York) and allowed to adhere overnight. The next morning, the culture medium (DMEM+10% FBS) was removed and […] of fresh medium (DMEM without FBS) added to each well. […] Human recombinant TNF-alpha (R&D Systems, Minneapolis) was added one hour later at a final concentration of 40 ng/ml. Four hours later, the HEK-293 cells were rinsed with 1×PBS prior to the luciferase assay, which was performed according to the manufacturer's instructions (Bright-Glo™ luciferase assay system, Promega, Wis.).

NF-κB [2] = test: NF-κB luciferase reporter activity in BV2 microglial cells stimulated with LPS; assay type: cell-based; conditions: BV-2 cells, LPS 100 ng/ml, 4 h
Protocol: An NF-κB specific luciferase reporter system in BV-2 microglial cells was first established. This cell line was generated by stable transfection of BV-2 cells with stable insertion of a luciferase reporter 4 kBwt luciferase plasmid and subsequent selection with hygomycin. LPS was used to stimulate NF-κB activity in these cells. Twenty-five thousand hygromycin B-resistant BV-2 cells were seeded per well in 24-well dishes and allowed to adhere overnight. The next morning, the culture medium (DMEM+10% FBS) was removed and 1 ml of fresh medium (DMEM without FBS) added to each well. The stock solutions of withanolides (2 mg/ml in DMSO) were diluted in 1×PBS to various concentration (0.05 to 5 uM) and added to the wells. LPS was added one hour later at a final concentration of 100 ng/ml. Four hours later, the BV-2 cells were rinsed with 1×PBS prior to proceeding with the luciferase assay that was performed according to the manufacturer's instructions (Bright-Glo™ luciferase assay system, Promega, Wis.).

[3] = test system: TDP-43 A315T transgenic mice; conditions: 5 mg/kg i.p. every 2 days for 15 weeks
Protocol: The TDP-43 A315T mouse model for ALS is fully described in Swamp, V et al., Brain 134: 2610-2626 2011.
Male and female TDP-43 A315T mice of approximately 9 months and 25-55 gm were included in the study, and were randomly assigned to three groups, as follows:
Group 2 (n=7) (the control group) received vehicle (2% polysorbate [Tween-80]/5% DMSO/93% saline); and
The injection volume at 12.5 mL/kg was based on the body weight of each individual animal at the start of the study.
Accelerating rotarod (as described in Gros-Louis, F., et al. Hum Mol Genet 17, 2691-2702 (2008)) was performed prior to first dosing and at weekly interval during the study. Testing was performed at 4-rpm speed with 0.25 rpm/s acceleration. Each mouse was subjected to three trials per session. The number of seconds each mouse remained on the rotarod apparatus for each trial was recorded.

[4] = test system: LPS-induced astrogliosis (GFAP promoter luciferase reporter); conditions: GFAP-luc mice, LPS inhaled, 4 mg/kg i.p. 2 h after LPS and 2 h before imaging, imaging 24 h after LPS
Protocol: In vivo bioluminescence imaging was performed to asses the inflammatory response in the cranial region.
GFAP-luc transgenic mice were used to test in vivo the efficacy of these analogs. In these transgenic mice, the firefly luciferase reporter gene is under the control of a 12 kb DNA fragment of the glial fibrillary acidic protein (GFAP) promoter (Caliper Life Sciences). The luciferase reporter is inducible following LPS administration resulting in GFAP transcriptional regulation. If the administration of test compounds following the injection of LPS decreases LPS-induced astrogliosis in GFAP-luc mice, this is visualized as a reduced bioluminescent signal upon imaging.
Transgenic mice under anesthesia were induced to inhale either 5 ul of a solution of LPS (1 mg/ml in 0.9% saline) or a solution of 0.9% saline alone followed 2 h later by an intraperitoneal (i.p.) injection of 0.5 ml of the test compounds (10% dilution in 0.9% saline) at a final concentration of 4 mg/kg. The following day, 2 h before imaging (24 h after the administration of the LPS solution), the transgenic mice were again injected with the withanolides as previously. Twenty minutes prior to imaging, the mice received an i.p. injection of the luciferase substrate D-luciferin (150 mg/kg). D-luciferin was dissolved in 0.9% saline to a final concentration of 20 mg/ml. […]

C57BL/6 female mice = conditions: i.p.; for clinical observations post-dosing: 65 mg/kg; for safety profile compared with WA: 20 to 65 mg/kg

- IC50 (NF-κB [1]): 450 nM
- IC50 (NF-κB [2]): 800 nM
SMILES: COCC1=C(C)C[C@H]([C@@H](C)[C@H]2CC[C@H]3[C@@H]4C[C@H]5O[C@]56[C@@H](OC)C=CC(=O)[C@]6(C)[C@H]4CC[C@]23C)OC1=O [4,27-O-dimethyl WA, 4,27-O-dimethylwithaferin A]
- inhibition of NF-κB expression (NF-κB [1]): inhibited NF-κB expression

SMILES: CO[C@H]1C=CC(=O)[C@]2(C)[C@H]3CC[C@]4(C)[C@@H]([C@H](C)[C@H]5CC(C)=C(CO)C(=O)O5)CC[C@H]4[C@@H]3C[C@H]3O[C@]132 [4-O-methyl WA, 4-O-methylwithaferin A]
- rotarod performance over the 15 week period [3]: improved
- bioluminescent signal in brain (astrogliosis) compared to saline-DMSO [4]: significant decrease
- mortality (C57BL/6 female mice; 55 mg/kg): no mortality
- clinical observations post-dosing (C57BL/6 female mice): some weakness and a decrease in activity
- mortality (C57BL/6 female mice; 65 mg/kg (highest dose tested)): no mortality
- safety profile compared with WA (C57BL/6 female mice): much better safety profile than WA
- IC50 (NF-κB [1]): 320 nM
- inhibition of NF-κB expression (NF-κB [1]): inhibited NF-κB expression
- IC50 (NF-κB [2]): 970 nM

SMILES: COCC1=C(C)C[C@H]([C@@H](C)[C@H]2CC[C@H]3[C@@H]4C[C@H]5O[C@]56[C@@H](O)C=CC(=O)[C@]6(C)[C@H]4CC[C@]23C)OC1=O [27-O-methyl WA, 27-O-methylwithaferin A]
- rotarod performance over the 15 week period [3]: improved
- bioluminescent signal in brain (astrogliosis) compared to saline-DMSO [4]: significant decrease
- mortality (C57BL/6 female mice; 55 mg/kg): no mortality
- clinical observations post-dosing (C57BL/6 female mice): some weakness and a decrease in activity
- mortality (C57BL/6 female mice; 65 mg/kg (highest dose tested)): no mortality
- safety profile compared with WA (C57BL/6 female mice): much better safety profile than WA
- IC50 (NF-κB [1]): 260 nM
- inhibition of NF-κB expression (NF-κB [1]): inhibited NF-κB expression
- IC50 (NF-κB [2]): 710 nM

- IC50 (NF-κB [1]; Homo sapiens, HEK293): 340 nM
- IC50 (NF-κB [2]; Mus musculus): 500 nM
SMILES: CC1=C(CO)C(=O)O[C@@H]([C@@H](C)[C@H]2CC[C@H]3[C@@H]4C[C@H]5O[C@]56[C@@H](O)C=CC(=O)[C@]6(C)[C@H]4CC[C@]23C)C1 [WA, Withaferin A, reference compound]
